The target in series [1] is T1, HIV-1 IN (Human immunodeficiency virus type 1 group M subtype B, UniProt P04585). The series can be described thus: HIV-1 IN in vitro concerted integration assay (processed or unprocessed donor DNA). Conditions: for effect on integration from the processed DNA: processed donor DNA (strand transfer); for inhibition of integration from the unprocessed substrate: unprocessed donor DNA; for differential effect between reactions: strand transfer / processed donor versus 3′processing / unprocessed donor: comparison of concerted integration and 3′processing results.

For series [2], the target named is T1, HIV-1 IN. Nature of the series: HIV-1 IN 3′processing assay. Type of series: biochemical. The note with it: 600 nM IN; increasing concentrations.
For a further series, the system named is 293T cells. The note with it: 72 hours treatment, 1–50 µM, MTS.
The next series addresses T2, MOS1 (Drosophila mauritiana, UniProt Q7JQ07).
T2 construct: involving the full-length Mos1 transposase (MOS1) was recently solved; made in house
Nature of the series: MOS1 in vitro activities, overall statements of the discussion. The format is biochemical, D. mauritiana. Conditions: in vitro assays of MOS1 activities; discussion. As for the experimental part:
(§1) In vitro transposition reactions were performed using pBC-3T3 as both the donor DNA and the target, as previously described. Briefly, the basic transposition reaction mixtures contained 10 mM Tris-HCl (pH 9), 50 mM NaCl, 20 mM MgCl2, 0.5 mM EDTA, 5% glycerol, 5 ng/ml BSA, 600 ng pBC-3T3, and 80 nM purified MBP-MOS1 (added last) in a volume of 20 µl. Inhibitors (25 or 10 µM, as specified) or DMSO (2%) were added to the reaction mixtures before the transposase. The reactions were allowed to proceed for 30 min at 30°C. After phenol-chloroform extraction and ethanol precipitation, 10% of the reaction mixture was transformed in electro-competent JM109 E. coli (2 mm cuvette, 1.5 kV in a MicroPulser™BioRad). Appropriate dilutions of each reaction mixture were plated on LB-tetracycline (12.5 µg/ml) agar and LB-chloramphenicol (80 µg/ml) agar to score the transposition rate. The transposition rate was the number of Tet^R colonies divided by the number of Chloram^R plus Tet^R colonies. Each condition was done at least three times in independent experiments.
Basic excision reaction mixtures contained 10 mM Tris-HCl (pH 9), 50 mM NaCl, 20 mM MgCl2, 0.5 mM EDTA, 0.5 mM DTT, 100 ng BSA, 600 ng of super-coiled pBC-3T3, and 80 nM MBP-MOS1 (added last) in a volume of 20 µl. Molecules (25 or 10 µM, as specified) or DMSO (2%) were added to the reaction mixtures before the transposase. The reactions were allowed to proceed at 30°C for 30 min before 2 µl of stop solution (loading buffer) were added. The reaction mixtures were then incubated at 65°C for 10 min. Each reaction was analysed by overnight electrophoresis at 2.7 V/cm on a TAE-buffered 1% agarose gel with ethidium bromide (0.3 mg/ml). After electrophoresis, the gel was photographed on a transilluminator. ImageGauge 4.22 software (Fujifilm) was used to quantify the bands. Each condition was tested at least twice.
These assays were performed using pre-cleaved 3′ITRs (PC-ITR), i.e. ITRs in the configuration expected after excision. Double-strand ITRs were obtained by annealing equimolar amounts of 70-NTS-PN (5′[…]3′) and 70-TS-PC (5′[…]3′) single-strand oligonucleotides. Prior to annealing, the transferred strand (70-TS-PC) was 5′-end labelled using T4 polynucleotide kinase (Promega) and γ-^32P-ATP following the manufacturer's instructions. Oligonucleotides were provided by Eurofins MWG Biotech (Germany) or Eurogentec (Belgium). Reaction mixtures containing 10 mM Tris-HCl (pH 9), 50 mM NaCl, 1 mM DTT, 5% glycerol, 100 ng BSA, 100 nM of labelled PC-ITR and 100 nM MBP-MOS1 in a final volume of 20 µl were incubated at 30°C for 30 min. The pBC plasmid (which contained the cat gene, a hot-spot for Mos1 insertion) was then added to 30 ng/µL along with 5 mM MgCl2. Molecules (25 or 10 µM, as specified) or DMSO (2%) were added to the reaction mixtures along with the target DNA to estimate their effect on integration. Reactions were carried out for 3 hours at 30°C. 0.1 mg/ml proteinase K and 0.1% SDS were added to stop the reaction. DNA products were purified by phenol-chloroform extraction and ethanol precipitated using standard techniques. DNA products were resuspended in DNA loading buffer, then separated onto a 1% agarose gel in 1X TAE (Tris Acetate EDTA) buffer. The gel was dried onto a nitrocellulose membrane (Hybond N+, GE Healthcare), scanned using a Storm, and analysed with ImageQuant software. Signals were quantified using ImageQuant software. Efficiency of integration was calculated as the intensity of the integration signal divided by the intensity of free target signal plus integration signal. Each condition was tested at least twice.
All molecules were also tested in in vitro assays reproducing integration and excision reactions catalysed by MOS1. […] In contrast, E-resveratrol and E-ε-viniferin glucoside, which act more specifically on HIV-1 3′processing reaction, and E-piceid and E-pterostilbene, which is more efficient on the integration reaction, were not active on MOS1.

Another series addresses T3, Mos1 transposase (MOS1) (Drosophila mauritiana, UniProt Q7JQ07).
T3 construct: involving the full-length Mos1 transposase (MOS1) was recently solved; made in house
The series can be described thus: MOS1 in vitro transposition assay (genetic hop experiment). Conditions: for inhibition at 25 µM: DMSO control as reference, read-out: inhibition of the whole MOS1 transposition activity. Type of series: biochemical, D. mauritiana. As for the experimental part: The wild type Mos1 transposase (MOS1: 345 amino acids) was produced and purified as a fusion protein linked to the maltose-binding protein by using the pMal-c2 system (New England Biolabs) and following the manufacturer's instructions.
as §1
To identify the natural stilbenes active on MOS1, the 17 molecules were tested using an in vitro genetic “hop” experiment, which is the most sensitive test available as yet. Purified MOS1 was incubated with the pBC-3T3 plasmid, which was used both as the transposon donor and the target plasmid. This plasmid contains the pBR322 tetracycline resistance gene (without promoter) framed by two Mos1 ITRs. This reconstitutes a pseudo-Mos1 element named 3T3. We took advantage of the fact that the cat gene (present in the pBC backbone) is a hotspot for Mos1 integration. […] Transposition events were recovered by bacterial transformation with selection for tetracycline resistance, as a gain-of-function landmark for transposition. […] Controls correspond to assays performed without molecule but with DMSO, which is routinely used as the solvent. […] To confirm the efficiency of the six molecules, they were similarly assayed at 10 µM ( figure 6B ). Since they appeared to be still active at 10 µM, they were further characterized in order to identify the targeted step of the transposition cycle.

Setting [3] is: read-out: inhibition of concerted integration.

We go through 14 compounds from article PMC3842960, “Natural Stilbenoids Isolated from Grapevine Exhibiting Inhibitory Effects against HIV-1 Integrase and Eukaryote MOS1 Transposase In Vitro Activities” (PLoS ONE, 2013).

T3 sequence (Q7JQ07 whole entry): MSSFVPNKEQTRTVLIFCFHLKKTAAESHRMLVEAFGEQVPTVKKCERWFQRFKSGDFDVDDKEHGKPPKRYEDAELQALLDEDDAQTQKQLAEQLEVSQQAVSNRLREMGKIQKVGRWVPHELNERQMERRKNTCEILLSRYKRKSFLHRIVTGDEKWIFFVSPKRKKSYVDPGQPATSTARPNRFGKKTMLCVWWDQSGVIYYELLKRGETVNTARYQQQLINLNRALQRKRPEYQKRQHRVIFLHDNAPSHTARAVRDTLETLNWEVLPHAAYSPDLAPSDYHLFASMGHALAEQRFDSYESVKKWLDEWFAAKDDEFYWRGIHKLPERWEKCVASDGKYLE
T2 sequence (Q7JQ07 whole entry): as above

With `Oc1ccc(/C=C/c2cc(O)cc3c2[C@H](c2cc(O)cc(O)c2)[C@@H](c2ccc(O)cc2)O3)cc1` [(+)-E-ε-viniferin], at HIV-1 IN [1] (setting [3]), the inhibition at 10 µM is less than 5%.

`Oc1ccc(/C=C/c2cc(O)cc3c2[C@@H](c2cc(O)cc4c2[C@H](c2cc(O)cc(O)c2)[C@@H](c2ccc(O)cc2)O4)[C@H](c2ccc(O)cc2)O3)cc1` [E-miyabenol C]: the inhibition at 10 µM on HIV-1 IN [1] (setting [3]) was less than 5%.

Turning to `Oc1cc(O)cc(/C=C/c2ccc(O)c(O)c2)c1` [E-piceatannol], on HIV-1 IN [2], the “inhibitory effect on 3′processing” value is reported as “showed an inhibitory effect”. For the same compound, in the series with 293T cells, the “cytotoxicity, cell survival” value is on record as “showed some toxicity”. In addition, on HIV-1 IN [1] (increasing concentrations), the “effect on integration from the processed DNA” value (“effect on integration” below) was “without having any detectable effect” and the “inhibition of integration from the unprocessed substrate” value (shortened to “inhibition of integration”) was “inhibit integration from the unprocessed substrate”.

Take `OCC1OC(Oc2cc(O)cc(C=Cc3ccc(O)cc3)c2)C(O)C(O)C1O` (stereo not drawn) [E-piceid]: the “activity on MOS1” value on MOS1 is recorded as “not active”. Further, on HIV-1 IN [1], the “differential effect between reactions: strand transfer / processed donor versus 3′processing / unprocessed donor” value is “more active on strand transfer reaction than”. Besides, on HIV-1 IN [1] (increasing concentrations), the “inhibition of concerted integration from processed and unprocessed donor” value (“inhibition of concerted integration” for short) is “inhibited both activities”.

On to `Oc1ccc(/C=C/c2cc(O)cc(O)c2)cc1` [E-resveratrol], for which the “inhibitory effect on 3′processing” value on HIV-1 IN [2] was “showed an inhibitory effect”. The “activity on MOS1” value on MOS1 is reported as “not active”. The “differential effect between reactions: strand transfer / processed donor versus 3′processing / unprocessed donor” value on HIV-1 IN [1] is on record as “reaction than on integration”. On HIV-1 IN [1] (increasing concentrations), the “effect on integration” value is reported as “without having any detectable effect” and the “inhibition of integration” value was “inhibit integration from the unprocessed substrate”.

As to `Oc1ccc(/C=C/c2cc(O)cc3c2[C@H](c2cc(O)cc(O)c2)[C@@H](c2ccc(O)c(O)c2)O3)cc1` [E-scirpusin A], the “inhibitory effect on 3′processing” value against HIV-1 IN [2] is “low”. For the same compound, the “inhibition of concerted integration” value at HIV-1 IN [1] (increasing concentrations) is listed as “inhibited both activities”.

Consider `OCC1OC(Oc2cc(C=Cc3ccc(O)cc3)c3c(c2)OC(c2ccc(O)cc2)C3c2cc(O)cc(O)c2)C(O)C(O)C1O` (stereo not drawn) [E-ε-viniferin glucoside], for which, at HIV-1 IN [2], the “inhibitory effect on 3′processing” value is on record as “showed an inhibitory effect”. The “activity on MOS1” value on MOS1 is “not active”. Moreover, the “cytotoxicity, cell survival” value in the series with 293T cells is recorded as “showed some toxicity”. At HIV-1 IN [1], the “differential effect between reactions: strand transfer / processed donor versus 3′processing / unprocessed donor” value is reported as “reaction than on integration”. Also, on HIV-1 IN [1] (increasing concentrations), the “effect on integration” value is “without having any detectable effect” and the “inhibition of integration” value is listed as “inhibit integration from the unprocessed substrate”.

With `Oc1ccc([C@@H]2c3c(O)cc(O)cc3[C@H]3c4c(cc(O)cc4[C@H]2O)O[C@@H]3c2ccc(O)cc2)cc1` [ampelopsin A], at HIV-1 IN [1] (setting [3]), the inhibition at 10 µM was less than 5%.

With `Oc1ccc([C@H]2c3c(O)cc(O)cc3[C@H]3c4c(cc(O)cc4C2C2c4cc(O)cc5c4[C@H](c4cc(O)cc(O)c4[C@@H]2c2ccc(O)cc2)[C@@H](c2ccc(O)cc2)O5)O[C@@H]3c2ccc(O)cc2)cc1` (stereo partly drawn) [isohopeaphenol], on MOS1, the “activity on MOS1” value is recorded as “not active”. Further, the inhibition at 10 µM on HIV-1 IN [1] (setting [3]) is less than 5%.

As to `Oc1ccc(C(O)C2c3cc(O)cc(O)c3[C@H](c3ccc(O)cc3)[C@H]2c2cc(O)cc(O)c2)cc1` (stereo partly drawn) [leachianol G], the “inhibitory effect on 3′processing” value against HIV-1 IN [2] was “low”. In addition, the “activity against MOS1 in transposition assay” value (from here on “activity against MOS1”) on Mos1 transposase (MOS1) (10 µM) is listed as “still active”. Besides, the inhibition at 25 µM on Mos1 transposase (MOS1) (25 µM) was greater than 50%. Also, at MOS1, the “activity on MOS1” value was “also active against MOS1 activities”. For the same compound, the “differential effect between reactions: strand transfer / processed donor versus 3′processing / unprocessed donor” value at HIV-1 IN [1] was “more active on strand transfer reaction than”. Moreover, on HIV-1 IN [1] (concerted integration, increasing concentrations), the “inhibitory efficiency compared with raltegravir” value is “inhibitory efficiencies close to raltegravir”. Further, the “inhibition of concerted integration” value against HIV-1 IN [1] (increasing concentrations) is recorded as “inhibited both activities”. The inhibition at 50 µM at HIV-1 IN [1] (setting [3]) lay within 30 to 60%.

Regarding `Oc1cc(O)cc(-c2cc3ccc(O)cc3o2)c1` [moracin M], the inhibition at 10 µM at HIV-1 IN [1] (setting [3]) is less than 5%.

`Oc1ccc(/C=C2/c3cc(O)cc(O)c3[C@H](c3ccc(O)cc3)[C@H]2c2cc(O)cc(O)c2)cc1` [quadrangularin A]: at HIV-1 IN [2], the “inhibitory effect on 3′processing” value is “showed an inhibitory effect”. Also, on Mos1 transposase (MOS1) (10 µM), the “activity against MOS1” value is “still active”. In addition, the inhibition at 25 µM on Mos1 transposase (MOS1) (25 µM) is greater than 50%. The “activity on MOS1” value at MOS1 is “also active against MOS1 activities”. The “differential effect between reactions: strand transfer / processed donor versus 3′processing / unprocessed donor” value at HIV-1 IN [1] is recorded as “better inhibitor of integration from unprocessed than from processed DNA”. In addition, the “inhibition of concerted integration” value against HIV-1 IN [1] (increasing concentrations) was “inhibited both activities”.

For `Cc1nnc(C(=O)NC(C)(C)c2nc(C(=O)NCc3ccc(F)cc3)c(O)c(=O)n2C)o1` [raltegravir, reference compound], the “inhibitory effect on 3′processing” value on HIV-1 IN [2] is recorded as “inhibition property than the selected compounds”. The “inhibition of concerted integration” value against HIV-1 IN [1] (increasing concentrations) is listed as “always found better inhibitor than the selected compounds”.

For the compound `Oc1ccc([C@H]2Oc3cc(O)cc(/C=C/c4ccc5c(c4)[C@@H](c4cc(O)cc6c4[C@H](c4cc(O)cc(O)c4)[C@@H](c4ccc(O)cc4)O6)[C@H](c4ccc(O)cc4)O5)c3[C@@H]2c2cc(O)cc(O)c2)cc1` [vitisin B, E-vitisin B], the “activity against MOS1” value at Mos1 transposase (MOS1) (10 µM) is listed as “still active”; at Mos1 transposase (MOS1) (25 µM), “active against MOS1”. Moreover, on HIV-1 IN [1] (setting [3]), the inhibition at 10 µM is less than 5%.
